{"source": "patent US8193377B2", "about": "“(−)-epigallocatechin gallate derivatives for inhibiting proteasome” (The Hong Kong Polytechnic University, priority 2004, dated 2012)", "key": {"Jurkat T cells": {"system": "Jurkat T cells", "test": "Trypan blue cell death assay in Jurkat T cells", "assay_type": "cell-based, human", "details": "10 μM, 24 h"}, "[1]": {"target": "20S prokaryotic proteasome (UniProt Q9P992)", "sequence (Q9P992 whole entry)": "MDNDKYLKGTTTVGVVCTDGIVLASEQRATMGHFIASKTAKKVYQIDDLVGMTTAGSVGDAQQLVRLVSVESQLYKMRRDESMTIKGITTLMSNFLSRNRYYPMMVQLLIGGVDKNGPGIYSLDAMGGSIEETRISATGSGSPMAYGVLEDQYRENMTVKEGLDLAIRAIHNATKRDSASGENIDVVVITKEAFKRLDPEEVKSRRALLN", "test": "Table 2: effects of tea polyphenols on 20S prokaryotic proteasome activities", "assay_type": "biochemical", "details": "Table 2, This work", "procedure": "To further examine the effects of B-ring —OH group deletion on proteasome-inhibitory and cell death-inducing abilities, we synthesized several novel EGCG analogs with eliminated —OH groups on the B-ring as well as their putative prodrugs, the peracetate-protected counterparts. By using a purified 20S proteasome and a chymotrypsin-like fluorogenic substrate, the proteasome-inhibitory effects of the following unprotected polyphenol analogs are determined: […]"}, "YT cells": {"system": "YT cells", "test": "Western blot in non-transformed natural killer YT cells compared with Jurkat T cells", "assay_type": "cell-based, human", "details": "25 μM, 24 h"}, "[2]": {"system": "phosphorylated Akt (p-Akt)", "test": "Western blot for phosphorylated Akt in Jurkat T cells", "assay_type": "cell-based, human", "details": "25 μM, 24 h", "procedure": "(−)-EGCG and 1 were incubated with Jurkat T cells for 24 h at 5, 10 and 25 μM, followed by Western blot analysis using a specific antibody to phosphorylated Akt (FIG. 7). […] Actin was used as a loading control."}, "LNCaP cells [3]": {"system": "LNCaP cells", "test": "Soft agar colony formation assay", "assay_type": "cell-based, human", "details": "25 μM once at plating, 21 days"}, "[4]": {"details": "rats given 56 mg orally; cited from earlier work"}, "[5]": {"test": "Stability test in RPMI 1640 culture medium, HPLC", "details": "0.1 mM in RPMI, 37° C., pH around 8", "quoted_text": "The stability of 1 with (−)-EGCG in a culture medium (RMPI) is compared, which mimics the body fluid with a pH value around 8. (−)-EGCG or 1 at 0.1 mM was incubated in 1 mL RMPI at 37° C. at indicated times. At different time points, the medium was analyzed by HPLC for the amount of tested compound remaining."}, "[6]": {"target": "T1, purified rabbit 20s proteasome (Oryctolagus cuniculus, UniProt G1T4Q9)", "T1 construct": "purchased Boston Biochem (Cambridge, Mass.)", "T1 sequence (G1T4Q9 1-263)": "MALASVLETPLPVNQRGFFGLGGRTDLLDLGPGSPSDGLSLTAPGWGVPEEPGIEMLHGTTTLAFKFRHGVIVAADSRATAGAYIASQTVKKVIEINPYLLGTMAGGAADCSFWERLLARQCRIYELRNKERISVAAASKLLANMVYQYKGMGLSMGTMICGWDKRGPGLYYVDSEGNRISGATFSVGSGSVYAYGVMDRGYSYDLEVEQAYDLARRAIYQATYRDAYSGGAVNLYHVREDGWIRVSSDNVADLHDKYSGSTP", "test": "Inhibition of chymotrypsin-like activity of purified 20S proteasome", "assay_type": "biochemical", "procedure": "Measurement of the chyrnotrypsin-like activity of the 20s proteasome was performed by incubating 0.5 μg of purified rabbit 20s proteasome with 40 μM fluorogenic peptide substrate, Suc-Leu-Leu-Val-Tyr-AMC, with or without various concentrations of natural and synthetic tea polyphenols as described previously (Nam S et. al.).\nIn order to test this hypothesis, proteasome activity was tested both in vitro and in intact Jurkat T cells with either 1 or (−)-EGCG (as a positive control). First, 1 and commercial (−)-EGCG were dissolved in DMSO and their effects on the chymotrypsin-like activity of purified 20S proteasomes were measured. […] In contrast, (−)-EGCG at 10 μM inhibited 80-90% of the proteasomal chymotrypsin-like activity. Therefore, as predicted, 1 outside of a cellular system is not a proteasome inhibitor.\nUp to 25 μM of all protected and unprotected compounds were incubated with a purified 20s proteasome and a fluorogenic substrate for chyrnotrypsin activity for 30 min. The half-maximal inhibitory concentration or IC50 was then determined. […] This is consistent with the results above."}, "VA-13 cells": {"system": "VA-13 cells", "test": "Nuclear staining (Hoechst) for apoptotic morphology, VA-13", "assay_type": "cell-based, human", "details": "25 μM", "procedure": "After each drug treatment, both detached and attached VA-13 and WI-38 cells were stained Hoechst 33342 to assess for apoptosis. Briefly, cells were washed 2× in PBS, fixed for 1 h with 70% ethanol at 4° C., washed 3× in PBS, and stained with […] Hoechst for 30 min in the dark at room temperature. Detached cells were plated on a slide and attached cells were visualized on the plate with a fluorescent microscope at 10× or 40× resolution (Zeiss, Germany). Digital Scientific obtained images with AxioVision 4.1 and adjusted using Adobe Photoshop 6.0.\nNext, apoptotic nuclear morphology is examined after treatment with natural (−)-EGCG, 2, and 2a (FIG. 12B). […] A comparison among all the protected analogs was then performed using 25 μM for 24 h. […] All of the protected analogs induced apoptosis in transformed (VA-13), but not normal (WI-38) cells (FIGS. 12B and 12C)."}, "LNCaP cells [7]": {"system": "LNCaP cells", "test": "Apoptotic morphological changes, phase contrast", "assay_type": "cell-based, human", "details": "25 μM, 24 h"}, "[8]": {"target": "T2, proteasomal chymotrypsin-like activity in Jurkat T cells (Homo sapiens, UniProt P28074)", "T2 construct": "measurement of the proteasomal chymotrypsin-like activity in the prepared lysates; endogenous in cells; host or cells: Jurkat T cells (human leukemia)", "T2 sequence (P28074 60-263)": "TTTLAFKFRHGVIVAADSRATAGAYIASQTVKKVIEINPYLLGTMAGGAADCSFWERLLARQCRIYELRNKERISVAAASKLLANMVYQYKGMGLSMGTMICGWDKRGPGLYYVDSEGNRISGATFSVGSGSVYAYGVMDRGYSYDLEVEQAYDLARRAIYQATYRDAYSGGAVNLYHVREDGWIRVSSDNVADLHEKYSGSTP", "test": "Proteasomal chymotrypsin-like activity in intact Jurkat T cells / their lysates", "assay_type": "cell-based", "details": "24 h, Jurkat T", "procedure": "VA-13 or WI-38 cells were grown in 24 well plates (2 ml/well) to 70-80% confluency, followed by 24 h treatment with […] (−)-EGCG, 2, or 2a. […] Suc-Leu-Leu-Val-Tyr-AMC substrate was then added for 2.5 h at 37° C. and the chyrnotrypsin-like activity was measured as described above. Alternatively, cells were treated with each compound at 25 μM for 4 or 24 h, and harvested and lysed. Suc-Leu-Leu-Val-Tyr-AMC (40 μM) was then incubated with the prepared cell lysates for 2.5 h and the chymotrypsin-like activity was measured as described above.\nIf 1 converts to (−)-EGCG inside the cells, proteasome inhibition in vivo should be detected. To examine this possibility, human Jurkat cells was treated with 25 μM of 1 or (−)-EGCG for 12 or 24 h, followed by measurement of proteasome activity by using a chymotrypsin-like specific fluorogenic substrate in intact cells (FIG. 6a) or Western blot for ubiquinated proteins (FIG. 6b). […] To analyze the intracellular level of polyubiquitinated proteins, cells were lysed after 12 hours incubation and subjected to Western blotting. […] It is possible that the amount of EGCG generated from 1, and thus its biological activity inside the cells depends on a combination of factors: the relative permeability of 1 into the cells, the amount of esterase enzymes and the amount of anti-oxidants that may be present in the cells at any time.\nTo determine whether the unprotected and protected polyphenol analogs could inhibit the proteasomal activity in intact cells, leukemia Jurkat T cells were treated with each compound at 25 μM for 4 and 24 h, followed by collection of cell pellets and measurement of the proteasomal chymotrypsin-like activity in the prepared lysates."}, "[9]": {"system": "caspase-3 activity in Jurkat T cells", "test": "Induction of caspase-3 activity (Ac-DEVD-AMC) in Jurkat T cells", "assay_type": "cell-based, human", "details": "25 μM, 4 h", "procedure": "Cells were treated with each compound at 25 μM for 4 or 24 h, and then harvested and lysed. Ac-DEVD-AMC (40 μM) was added to the cell lysates for 2.5 h and the caspase-3 activity.\nTo determine if the cell death observed (FIG. 16) was due to the induction of apoptosis, a similar experiment was performed in Jurkat T cells, followed by measurement of caspase-3 activation and PARP cleavage."}, "[10]": {"details": "Suc-Leu-Leu-Val-Tyr-AMC, 2 h incubation, Table 1, read-out: IC50 (μM), unprotected"}}, "note": "Like-named read-outs stand apart in the source and are kept apart here."}
{"smiles": "O=C(O[C@@H]1Cc2c(O)cc(O)cc2O[C@@H]1c1cc(O)c(O)c(O)c1)c1cc(O)c(O)c(O)c1", "note": "[(−)-EGCG, (−)-epigallocatechin-3-gallate, reference compound]", "values": [{"measurement": "cell death", "setting": "Jurkat T cells", "value": 5, "unit": "%"}, {"measurement": "IC50", "setting": "[1]", "value": 300, "unit": "nM"}, {"measurement": "apoptosis (PARP cleavage), Jurkat T versus YT cells", "setting": "YT cells", "value": "only Jurkat cells underwent apoptosis"}, {"measurement": "reduction of p-Akt level (densitometry)", "setting": "[2]", "value": 32, "unit": "%"}, {"measurement": "colony formation in soft agar", "setting": "LNCaP cells [3]", "value": "significant decrease in colony formation"}, {"measurement": "fraction of (−)-EGCG absorbed", "setting": "[4]", "value": 0.012, "unit": "%"}, {"measurement": "time within which compound degraded in culture medium", "setting": "[5]", "value": "≤ 20", "unit": "min"}, {"measurement": "inhibition at 10 µM", "setting": "[6]; 10 μM, purified 20S proteasome, read-out: inhibition of proteasomal chymotrypsin-like activity", "value": "80 to 90", "unit": "%"}, {"measurement": "IC50", "setting": "[6]; [10]", "value": 0.3, "unit": "µM"}, {"measurement": "IC50", "setting": "[6]; up to 25 μM, 30 min incubation, read-out: IC50", "value": 0.2, "unit": "µM"}, {"measurement": "apoptotic nuclear morphology", "setting": "VA-13 cells; 24 h", "value": "little or no apoptosis"}, {"measurement": "apoptotic nuclear morphology", "setting": "VA-13 cells; 36 h", "value": "did initiate apoptosis"}, {"measurement": "apoptotic morphological changes", "setting": "LNCaP cells [7]", "value": "enlarged, flattened cells"}, {"measurement": "inhibition at 25 µM", "setting": "[8]; Jurkat, read-out: inhibition of proteasome activity in intact cells", "value": 31, "unit": "%"}]}
{"smiles": "O=C(O[C@@H]1Cc2c(O)cc(O)cc2O[C@@H]1c1ccc(O)cc1)c1cc(O)c(O)c(O)c1", "note": "[Compound 6, (−)-(2R,3R)-5,7-dihydroxy-2-(4-hydroxyphenyl)chroman-3-yl 3,4,5-trihydroxybenzoate]", "values": [{"measurement": "IC50", "setting": "[1]", "value": 2690, "unit": "nM"}, {"measurement": "IC50", "setting": "[6]; [10]", "value": 2.69, "unit": "µM"}, {"measurement": "increase in caspase-3 activity", "setting": "[9]", "value": 4, "unit": "fold"}, {"measurement": "inhibition of chymotrypsin-like activity in lysates of treated cells", "setting": "[8]; 25 μM", "value": 30, "unit": "%"}]}
